Consider 1 compound from paper PMC10180211, “Stability Analysis of the Asiatic Acid-COX-2 Complex Using 100 ns Molecular Dynamic Simulations and Its Selectivity against COX-2 as a Potential Anti-Inflammatory Candidate” (Molecules, 2023).

The test deals with T1, cyclooxygenase-2 (COX-2) (Ovis aries, UniProt P79208).
T1 construct: gene PTGS2
T1 sequence (P79208 17-603): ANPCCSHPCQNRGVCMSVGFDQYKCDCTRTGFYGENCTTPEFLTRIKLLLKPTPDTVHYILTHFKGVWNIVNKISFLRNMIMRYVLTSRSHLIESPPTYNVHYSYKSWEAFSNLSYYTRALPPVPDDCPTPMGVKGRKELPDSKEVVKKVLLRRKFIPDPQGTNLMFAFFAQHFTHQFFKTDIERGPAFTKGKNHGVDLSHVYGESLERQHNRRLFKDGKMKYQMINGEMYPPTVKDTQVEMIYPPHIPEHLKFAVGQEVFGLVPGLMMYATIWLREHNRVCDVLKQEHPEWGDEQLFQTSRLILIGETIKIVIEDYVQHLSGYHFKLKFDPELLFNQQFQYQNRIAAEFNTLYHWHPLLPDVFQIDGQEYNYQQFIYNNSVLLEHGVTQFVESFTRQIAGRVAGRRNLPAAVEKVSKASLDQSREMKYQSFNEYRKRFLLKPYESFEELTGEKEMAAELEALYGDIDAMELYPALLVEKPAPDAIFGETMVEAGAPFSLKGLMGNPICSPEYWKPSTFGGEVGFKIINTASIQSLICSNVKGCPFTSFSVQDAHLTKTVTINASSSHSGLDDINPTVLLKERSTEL
Kind of test: colorimetric COX inhibitor screening assay (kit […]; TMPD oxidation at […] nm) with ovine COX-2. It counts as biochemical.

Structures are written as SMILES.

Broadly, the IC50 is the concentration that gives 50% inhibition. Lower therefore signals higher potency. With `C[C@H]1[C@H](C)CC[C@]2(C(=O)O)CC[C@]3(C)C(=CC[C@@H]4[C@@]5(C)C[C@@H](O)[C@H](O)[C@@](C)(CO)[C@@H]5CC[C@]43C)[C@H]12` [asiatic acid, 2,3,23-trihydroxy-urs-12-ene-28-oic-acid], 120 µM corresponded to half-maximal inhibition (IC50).
